These compounds were tested against T1, TYK2 (Homo sapiens, UniProt P29597) (assay: TYK2 MSD degradation in OCI-LY10 cells). Conditions: TYK2 degradation in OCI-LY10 cells, 4 to 24 hours incubation.
T1 construct: Degradation of TYK2 in cells was quantitatively measured using Meso Scale Discovery (MSD) technology; endogenous in cells; host or cells: OCI-LY10
T1 sequence (P29597 whole entry): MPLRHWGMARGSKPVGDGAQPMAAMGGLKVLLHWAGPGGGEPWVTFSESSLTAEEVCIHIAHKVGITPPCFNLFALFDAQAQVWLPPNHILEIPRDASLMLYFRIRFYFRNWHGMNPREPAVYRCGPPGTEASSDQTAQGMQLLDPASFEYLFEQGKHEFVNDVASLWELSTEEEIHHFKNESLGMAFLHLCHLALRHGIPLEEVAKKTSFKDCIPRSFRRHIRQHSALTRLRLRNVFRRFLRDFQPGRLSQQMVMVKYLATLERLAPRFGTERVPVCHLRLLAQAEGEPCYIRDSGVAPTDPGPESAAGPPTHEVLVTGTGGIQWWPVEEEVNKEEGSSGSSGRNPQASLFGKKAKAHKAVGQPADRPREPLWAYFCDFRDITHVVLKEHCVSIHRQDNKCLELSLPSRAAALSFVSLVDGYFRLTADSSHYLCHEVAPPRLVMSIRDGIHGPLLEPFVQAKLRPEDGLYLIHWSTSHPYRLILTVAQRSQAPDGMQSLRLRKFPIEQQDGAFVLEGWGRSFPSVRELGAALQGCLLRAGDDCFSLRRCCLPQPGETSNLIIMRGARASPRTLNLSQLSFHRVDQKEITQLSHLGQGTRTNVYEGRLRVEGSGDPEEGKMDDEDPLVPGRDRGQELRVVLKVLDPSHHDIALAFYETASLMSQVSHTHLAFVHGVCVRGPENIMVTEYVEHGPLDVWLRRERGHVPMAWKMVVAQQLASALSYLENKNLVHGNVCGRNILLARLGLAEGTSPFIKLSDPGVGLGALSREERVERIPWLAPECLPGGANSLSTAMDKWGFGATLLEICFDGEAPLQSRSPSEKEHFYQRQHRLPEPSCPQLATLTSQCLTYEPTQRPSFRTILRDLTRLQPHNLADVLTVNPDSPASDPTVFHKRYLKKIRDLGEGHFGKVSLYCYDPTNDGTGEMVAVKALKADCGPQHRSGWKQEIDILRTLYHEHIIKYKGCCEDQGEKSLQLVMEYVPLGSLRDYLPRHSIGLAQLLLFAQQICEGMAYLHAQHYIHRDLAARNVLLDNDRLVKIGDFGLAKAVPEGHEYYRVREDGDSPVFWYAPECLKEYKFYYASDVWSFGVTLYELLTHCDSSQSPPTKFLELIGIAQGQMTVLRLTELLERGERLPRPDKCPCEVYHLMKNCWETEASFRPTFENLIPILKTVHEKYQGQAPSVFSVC
Assay type: cell-based
Protocol: Example 7. TYK2 MSD Degradation
Degradation of TYK2 in cells was quantitatively measured using Meso Scale Discovery (MSD) technology. OCI-LY10 cells were seeded in 96-well plates with a density of 0.4 million cells per well in 100 μl fresh media. Compounds were then added to the assay plates with a final top concentration of 1 to 10 μM in a 1:3 dilution series with total of 9 doses. The assay plates were then incubated for 4 to 24 hours at 37° C. under […]. The assay plates were then centrifuged for 5 minutes, and the cell pellets were treated with 100 μl/well RIPA lysis buffer (Boston Bioproducts, BP-115D) with protease and phosphatase inhibitors (Roche, 05892791001 and 04906837001). To prepare MSD assay plates (MSD, L15XA), the plates were coated with the capture antibody (Santa Cruz Biotechnology, SC-5271) in PBS, at 40 μl/well. The plates were then incubated overnight at 4° C., washed 3 times with 150 μl/well TBST buffer (Cell Signaling Technology, 9997S) and blocked with 150 μl/well blocking buffer (MSD, R93BA-4). Cell lysates were then added to MSD assay plates and the plates were incubated at room temperature for 1 hour. The plates were then washed 3 times with 150 μl/well TBST buffer and 25 μl/well primary detection antibody (Cell Signaling Technology, #9312). The assay plates were then incubated at room temperature for 1 hour, washed 3 times with 150 μl/well TBST buffer, and 25 μl/well secondary detection antibody, SULFO-TAG anti-rabbit antibody (MSD, R32AB-1) were added. The assay plates were then incubated at room temperature for 1 hour, washed 3 times with 150 μl/well TB ST buffer, and 150 μl/well MSD reading buffer (MSD, R92TC-2) were added. The plates were then analyzed by an MSD reader. The data was analyzed by GraphPad Prism and the dose dependent TYK2 degradation was fit using the four-parameter inhibitor vs. response nonlinear regression.
The letter codes for TYK2 DC50 include: A (<1 nM); B (i to <10 nM); C (10 to 100 nM); D (>100 nM); and E (not tested). The letter codes for TYK2 Dmax % include: A (>90%); B (90 to >75%); C (75 to 50%); D (<50%); and E (not tested).
For `CNc1cc(N2CCc3c(-c4ccc(CN5CCC6(CCN(C(=O)c7cc(C)c(Cl)c(N8CCC(=O)NC8=O)c7)CC6)C(F)(F)C5)cn4)cc(F)cc32)nn2c(C(=O)N[C@@H]3C[C@@H]3F)cnc12` [I-815], the “TYK2 MSD OCI-LY10 Dmax %” value was “B (B (90 to >75%))”.
In the case of `CNc1cc(N2CCc3c(-c4ncc(CN5CC6(CCN(C(=O)c7cc(N8CCC(=O)NC8=O)c(F)cn7)CC6(F)F)C5)cc4F)cc(F)cc32)nn2c(C(=O)N[C@@H]3C[C@@H]3F)cnc12` [I-1153], the “TYK2 MSD OCI-LY10 Dmax %” value is reported as “B (B (90 to >75%))”.
With `CNc1cc(N2CCc3c(-c4ccc(CN5CC6(CCN(C(=O)c7ccc(C)c(N8CCC(=O)NC8=O)c7)CC6(F)F)C5)cn4)cc(F)cc32)nn2c(C(=O)NC3CC3F)cnc12` (centres unmarked) [I-357] the “TYK2 MSD OCI-LY10 Dmax %” value was “A (A (>90%))”.
`CNc1cc(N2CCc3c(-c4ccc(CN5CCC(N6CCC7(CCN(c8cccc9c8n(C)c(=O)n9C8CCC(=O)NC8=O)CC7)CC6)C(F)(F)C5)cn4)cccc32)nn2c(C(=O)N[C@@H]3C[C@@H]3F)cnc12` (some centres unmarked) [I-281] was tested, and the “TYK2 MSD OCI-LY10 Dmax %” value was “C (C (75 to 50%))”.
`CNc1cc(N2CCc3c(-c4ccc(CN5CC6(CCN(C(=O)c7ccc(Cl)c(N8CCC(=O)NC8=O)c7)CC6(F)F)C5)cn4)cccc32)nn2c(C(=O)N[C@H]3C[C@H](OC)C3)cnc12` [I-886] was tested, and the “TYK2 MSD OCI-LY10 Dmax %” value was “B (B (90 to >75%))”.
`CNc1cc(N2CCc3c(-c4ccc(CN5CC6(CCN(C(=O)c7cncc(N8CCC(=O)NC8=O)c7)CC6)C5)cn4)cccc32)nn2c(C(=O)N[C@@H]3C[C@@H]3F)cnc12` [I-353] was tested, and the “TYK2 MSD OCI-LY10 Dmax %” value was “D (D (<50%))”.
`CNc1cc(N2CCc3c(-c4ccc(CN5CC6(CCN(C(=O)c7cc(C)c(Cl)c(N8CCC(=O)NC8=O)c7)CC6(F)F)C5)c(C)n4)cccc32)nn2c(C(=O)N[C@@H]3C[C@@H]3F)cnc12` [I-966] was tested, and the “TYK2 MSD OCI-LY10 Dmax %” value was “B (B (90 to >75%))”.
In the case of `CNc1cc(N2CC3(CCN(C4CCN(c5cccc6c5n(C)c(=O)n6C5CCC(=O)NC5=O)CC4)CC3)c3ccccc32)nn2c(C(=O)NC3CC3)cnc12` (centres unmarked) [I-23], the “TYK2 MSD OCI-LY10 Dmax %” value is reported as “D (D (<50%))”.
For `CNc1cc(N2CCc3c(-c4ncc(CN5CC6(CCN(C(=O)c7cc(N8CCC(=O)NC8=O)c(OC)cc7C)CC6(F)F)C5)cc4F)cccc32)nn2c(C(=O)N[C@@H]3CC[C@H]3OC)cnc12` [I-1135], the “TYK2 MSD OCI-LY10 Dmax %” value was “A (A (>90%))”.
In the case of `CNc1cc(N2CCc3c(N4CC(CN5CCC(N6CCN(c7ccc8c(c7)n(C)c(=O)n8C7CCC(=O)NC7=O)CC6)C(F)(F)C5)C4)cccc32)nn2c(C(=O)NC3CC3)cnc12` (centres unmarked) [I-12], the “TYK2 MSD OCI-LY10 Dmax %” value is reported as “C (C (75 to 50%))”.
In the case of `CNc1cc(N2CCc3c(-c4cc(CN5CCC6(CC5)CN(c5ccc7c(c5)n(C)c(=O)n7C5CCC(=O)NC5=O)C6)ccn4)cccc32)nn2c(C(=O)NC3CC3)cnc12` (centres unmarked) [I-21], the “TYK2 MSD OCI-LY10 Dmax %” value is reported as “D (D (<50%))”.
For `CNc1cc(N2CCc3c(CN4CCN(C5CCC6(CC5)CCN(C(=O)c5ccc(Cl)c(N7CCC(=O)NC7=O)c5)CC6)CC4)cccc32)nn2c(C(=O)N[C@@H]3C[C@@H]3F)cnc12` [I-857], the “TYK2 MSD OCI-LY10 Dmax %” value was “A (A (>90%))”.
With `CNc1cc(N2CCc3c(-c4ccc(CN5CCC6(CC5)CCN(c5cc(Cl)cc(NC7CCC(=O)NC7=O)c5)CC6)cn4)cccc32)nn2c(C(=O)NC3CC3)cnc12` (centres unmarked) [I-65] the “TYK2 MSD OCI-LY10 Dmax %” value was “D (D (<50%))”.
With `CNc1cc(N2CCc3c(N4CCN(CC5CCC6(CC5)CCN(C(=O)c5ccc(Cl)c(N7CCC(=O)NC7=O)c5)CC6)CC4)cccc32)nn2c(C(=O)NC3CC3)cnc12` [I-55] the “TYK2 MSD OCI-LY10 Dmax %” value was “D (D (<50%))”.
With `CNc1cc(N2CCc3c(-c4ccc(CN5CC6(CCN(Cc7ccc(OC)c(N8CCC(=O)NC8=O)c7)CC6(F)F)C5)cn4)cccc32)nn2c(C(=O)N[C@@H]3C[C@@H]3F)cnc12` [I-367] the “TYK2 MSD OCI-LY10 Dmax %” value was “C (C (75 to 50%))”.
In the case of `CNc1cc(N2CCc3c(-c4ncc(CN5CC6(CCN(C(=O)c7cc(OC)c(C)c(N8CCC(=O)NC8=O)c7)CC6(F)F)C5)cc4F)cccc32)nn2c(C(=O)N[C@@H]3CC[C@H]3OC)cnc12` [I-1137], the “TYK2 MSD OCI-LY10 Dmax %” value is reported as “A (A (>90%))”.

Same assay, conditions: TYK2 degradation in OCI-LY10 cells, 4 to 24 hours incubation, read-out: TYK2 MSD OCI-LY10 Rel-DC50
`CNc1cc(N2CCc3c(-c4ccc(CN5CCC6(CCN(C(=O)c7cc(C)c(Cl)c(N8CCC(=O)NC8=O)c7)CC6)C(F)(F)C5)cn4)cc(F)cc32)nn2c(C(=O)N[C@@H]3C[C@@H]3F)cnc12` [I-815] was tested, and the DC50 was under 10 nM.
With `CNc1cc(N2CCc3c(-c4ncc(CN5CC6(CCN(C(=O)c7cc(N8CCC(=O)NC8=O)c(F)cn7)CC6(F)F)C5)cc4F)cc(F)cc32)nn2c(C(=O)N[C@@H]3C[C@@H]3F)cnc12` [I-1153] the DC50 was under 10 nM.
In the case of `CNc1cc(N2CCc3c(-c4ccc(CN5CC6(CCN(C(=O)c7ccc(C)c(N8CCC(=O)NC8=O)c7)CC6(F)F)C5)cn4)cc(F)cc32)nn2c(C(=O)NC3CC3F)cnc12` (centres unmarked) [I-357], the DC50 is reported as under 1 nM.
`CNc1cc(N2CCc3c(-c4ccc(CN5CCC(N6CCC7(CCN(c8cccc9c8n(C)c(=O)n9C8CCC(=O)NC8=O)CC7)CC6)C(F)(F)C5)cn4)cccc32)nn2c(C(=O)N[C@@H]3C[C@@H]3F)cnc12` (some centres unmarked) [I-281] gave a DC50 of under 10 nM.
`CNc1cc(N2CCc3c(-c4ccc(CN5CC6(CCN(C(=O)c7ccc(Cl)c(N8CCC(=O)NC8=O)c7)CC6(F)F)C5)cn4)cccc32)nn2c(C(=O)N[C@H]3C[C@H](OC)C3)cnc12` [I-886] was tested, and the DC50 was under 10 nM.
Compound `CNc1cc(N2CCc3c(-c4ccc(CN5CC6(CCN(C(=O)c7cncc(N8CCC(=O)NC8=O)c7)CC6)C5)cn4)cccc32)nn2c(C(=O)N[C@@H]3C[C@@H]3F)cnc12` [I-353] has a DC50 of over 100 nM.
In the case of `CNc1cc(N2CCc3c(-c4ccc(CN5CC6(CCN(C(=O)c7cc(C)c(Cl)c(N8CCC(=O)NC8=O)c7)CC6(F)F)C5)c(C)n4)cccc32)nn2c(C(=O)N[C@@H]3C[C@@H]3F)cnc12` [I-966], the DC50 is reported as under 10 nM.
With `CNc1cc(N2CC3(CCN(C4CCN(c5cccc6c5n(C)c(=O)n6C5CCC(=O)NC5=O)CC4)CC3)c3ccccc32)nn2c(C(=O)NC3CC3)cnc12` (centres unmarked) [I-23] the DC50 was over 100 nM.
For `CNc1cc(N2CCc3c(-c4ncc(CN5CC6(CCN(C(=O)c7cc(N8CCC(=O)NC8=O)c(OC)cc7C)CC6(F)F)C5)cc4F)cccc32)nn2c(C(=O)N[C@@H]3CC[C@H]3OC)cnc12` [I-1135], the DC50 was under 1 nM.
`CNc1cc(N2CCc3c(N4CC(CN5CCC(N6CCN(c7ccc8c(c7)n(C)c(=O)n8C7CCC(=O)NC7=O)CC6)C(F)(F)C5)C4)cccc32)nn2c(C(=O)NC3CC3)cnc12` (centres unmarked) [I-12] was tested, and the DC50 was under 1 nM.
For `CNc1cc(N2CCc3c(-c4cc(CN5CCC6(CC5)CN(c5ccc7c(c5)n(C)c(=O)n7C5CCC(=O)NC5=O)C6)ccn4)cccc32)nn2c(C(=O)NC3CC3)cnc12` (centres unmarked) [I-21], the DC50 was under 10 nM.
In the case of `CNc1cc(N2CCc3c(CN4CCN(C5CCC6(CC5)CCN(C(=O)c5ccc(Cl)c(N7CCC(=O)NC7=O)c5)CC6)CC4)cccc32)nn2c(C(=O)N[C@@H]3C[C@@H]3F)cnc12` [I-857], the DC50 is reported as under 1 nM.
`CNc1cc(N2CCc3c(-c4ccc(CN5CCC6(CC5)CCN(c5cc(Cl)cc(NC7CCC(=O)NC7=O)c5)CC6)cn4)cccc32)nn2c(C(=O)NC3CC3)cnc12` (centres unmarked) [I-65] was tested, and the DC50 was over 100 nM.
`CNc1cc(N2CCc3c(N4CCN(CC5CCC6(CC5)CCN(C(=O)c5ccc(Cl)c(N7CCC(=O)NC7=O)c5)CC6)CC4)cccc32)nn2c(C(=O)NC3CC3)cnc12` [I-55] showed a DC50 of over 100 nM.
With `CNc1cc(N2CCc3c(-c4ccc(CN5CC6(CCN(Cc7ccc(OC)c(N8CCC(=O)NC8=O)c7)CC6(F)F)C5)cn4)cccc32)nn2c(C(=O)N[C@@H]3C[C@@H]3F)cnc12` [I-367] the DC50 was under 10 nM.
In the case of `CNc1cc(N2CCc3c(-c4ncc(CN5CC6(CCN(C(=O)c7cc(OC)c(C)c(N8CCC(=O)NC8=O)c7)CC6(F)F)C5)cc4F)cccc32)nn2c(C(=O)N[C@@H]3CC[C@H]3OC)cnc12` [I-1137], the DC50 is reported as under 1 nM.

Source: patent US20260125400A1, “TYK2 DEGRADERS AND USES THEREOF” (Kymera Therapeutics, Inc., priority 2023, published 2026)
